Tests used:
Smn protein = Smn protein assay (HTRF) in cultured cells (SMA patient fibroblasts GM03813); format: cell-based, human; conditions: 48 hours; for EC1.5x for Smn protein expression: SMA patient fibroblast cells (GM03813), HTRF, 7-point concentration data, concentration producing 1.5 times Smn protein vs DMSO vehicle control; for maximum fold (Fold) increase of Smn protein: SMA patient fibroblast cells, 7-point concentration curve, relative to vehicle control
Method in brief: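 Smn level is expressed as fold over vehicle, from blank-corrected ΔF of the 665/620 nm HTRF ratio. Readout used anti-SMN d2 and kryptate antibodies on RIPA lysates. GM03813 SMA fibroblasts had 48 h exposure at 37° C to seven 3.16-fold compound dilutions, run in triplicate.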

[1] = system: SMN2 minigene mRNA (SMN2-A minigene construct); assay: SMN2 minigene mRNA splicing RT-qPCR assay in cultured cells; format: cell-based, human; conditions: Homo sapiens, HEK293-H; HEK293H cells stably transfected with SMN2-A minigene, 24 hours, 7-point concentration data; concentration giving 1.5-fold SMN2 full length mRNA relative to vehicle-treated cells; read-out: EC1.5x for production of full length SMN2 mRNA
Method in brief: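 Full-length SMN2 minigene mRNA, measured by exon 7/luciferase-specific RT-qPCR that excludes endogenous SMN1/SMN2, was normalized to GAPDH and expressed relative to vehicle-treated cells via modified ΔΔCt. Stably transfected HEK293H cells received compound (7-point, 3.16-fold series, duplicates) for 24 h at 37 °C.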

melting point [°C]	SMILES	EC1.5x for Smn protein expression (Smn protein)	maximum fold (Fold) increase of Smn protein (Smn protein)	EC (1.5-fold) [1] [µM]
195 to 200	CCN1CCCN(c2ccc3cc(-c4cn5cc(C)cc(F)c5n4)c(=O)oc3n2)CC1 [Cpd 138, 7-(4-ethyl-1,4-diazepan-1-yl)-3-(8-fluoro-6-methylimidazo[1,2-a]pyridin-2-yl)-2H-pyrano[2,3-b]pyridin-2-one]	**** (an EC1.5×≦0.3 μM is indicated by four stars (****))	**** (a fold increase between >1.5 and ≦1.65 is indicated by four stars (****))	≤ 0.1
189 to 191	CCN1CCCN(c2ccc3cc(-c4cn5cccc(F)c5n4)c(=O)oc3n2)CC1 [Cpd 139, 7-(4-ethyl-1,4-diazepan-1-yl)-3-(8-fluoroimidazo[1,2-a]pyridin-2-yl)-2H-pyrano[2,3-b]pyridin-2-one]	**** (an EC1.5×≦0.3 μM is indicated by four stars (****))	**** (a fold increase between >1.5 and ≦1.65 is indicated by four stars (****))	≤ 0.1
238 to 241	CCN1CCN(c2ccc3cc(-c4cn5cc(C)nc(C)c5n4)c(=O)oc3n2)CC1 [Cpd 140, 3-(6,8-dimethylimidazo[1,2-a]pyrazin-2-yl)-7-(4-ethylpiperazin-1-yl)-2H-pyrano[2,3-b]pyridin-2-one]	** (an EC1.5× between >1 and ≦3 μM is indicated by two stars (**))	**** (a fold increase between >1.5 and ≦1.65 is indicated by four stars (****))	0.3 to 1
201 to 204	CCN1CCCN(c2ccc3cc(-c4cn5cccc(Cl)c5n4)c(=O)oc3n2)CC1 [Cpd 141, 3-(8-chloroimidazo[1,2-a]pyridin-2-yl)-7-(4-ethyl-1,4-diazepan-1-yl)-2H-pyrano[2,3-b]pyridin-2-one]	**** (an EC1.5×≦0.3 μM is indicated by four stars (****))	**** (a fold increase between >1.5 and ≦1.65 is indicated by four stars (****))	≤ 0.1
217 to 221	CCN1CCCN(c2ccc3cc(-c4cn5cc(C)ncc5n4)c(=O)oc3n2)CC1 [Cpd 142, 7-(4-ethyl-1,4-diazepan-1-yl)-3-(6-methylimidazo[1,2-a]pyrazin-2-yl)-2H-pyrano[2,3-b]pyridin-2-one]	*** (an EC1.5× between >0.3 μM and ≦1 μM is indicated by three stars (***))	**** (a fold increase between >1.5 and ≦1.65 is indicated by four stars (****))	≤ 0.1
252 to 256	CCN1CCN(c2ccc3cc(-c4cn5cc(C)ncc5n4)c(=O)oc3n2)C[C@@H]1C [Cpd 143, 7-[(3S)-4-ethyl-3-methylpiperazin-1-yl]-3-(6methylimidazo-[1,2-a]pyrazin-2-yl)-2H-pyrano[2,3-b]pyridin-2-one]	*** (an EC1.5× between >0.3 μM and ≦1 μM is indicated by three stars (***))	**** (a fold increase between >1.5 and ≦1.65 is indicated by four stars (****))	≤ 0.1
184 to 190	CCN1CCN(c2ccc3cc(-c4cn5cc(C)nc(C)c5n4)c(=O)oc3n2)C[C@@H]1C [Cpd 144, 3-(6,8-dimethylimidazo[1,2-a]pyrazin-2-yl)-7-[(3S)-4-ethyl-3-methylpiperazin-1-yl]-2H-pyrano[2,3-b]pyridin-2-one]	**** (an EC1.5×≦0.3 μM is indicated by four stars (****))	**** (a fold increase between >1.5 and ≦1.65 is indicated by four stars (****))	≤ 0.1
196 to 199	CCN1CCN(c2ccc3cc(-c4cn5cccc(Cl)c5n4)c(=O)oc3n2)C[C@@H]1C [Cpd 145, 3-(8-chloroimidazo[1,2-a]pyridin-2-yl)-7-[(3S)-4-ethyl-3-methylpiperazin-1-yl]-2H-pyrano[2,3-b]pyridin-2-one]	**** (an EC1.5×≦0.3 μM is indicated by four stars (****))	**** (a fold increase between >1.5 and ≦1.65 is indicated by four stars (****))	≤ 0.1

The next lines start with the molecule.

SMILES	melting point [°C]	EC1.5x for Smn protein expression (Smn protein)	maximum fold (Fold) increase of Smn protein (Smn protein)	EC (1.5-fold) [1] [µM]
CCN1CCN(c2ccc3cc(-c4cn5cc(C)ccc5n4)c(=O)oc3n2)CC1 [Cpd 130, 7-(4-ethylpiperazin-1-yl)-3-(6-methylimidazo[1,2-a]pyridin-2-yl)-2H-pyrano[2,3-b]pyridin-2-one]	235 to 237	* (An EC1.5× for Smn protein expression between >3 μM and ≦10 μM is indicated by one star (*))	*** (a fold increase between >1.35 and ≦1.5 is indicated by three stars (***))	0.1 to 0.3
CCN1CCN(c2ccc3cc(-c4cn5ccc(C)cc5n4)c(=O)oc3n2)CC1 [Cpd 131, 7-(4-ethylpiperazin-1-yl)-3-(7-methylimidazo[1,2-a]pyridin-2-yl)-2H-pyrano[2,3-b]pyridin-2-one]	258 to 261		*** (a fold increase between >1.35 and ≦1.5 is indicated by three stars (***))	0.1 to 0.3
CCN1CCN(c2ccc3cc(-c4cn5cccc(F)c5n4)c(=O)oc3n2)CC1 [Cpd 132, 7-(4-ethylpiperazin-1-yl)-3-(8-fluoroimidazo[1,2-a]pyridin-2-yl)-2H-pyrano[2,3-b]pyridin-2-one]	203 to 206		** (a fold increase between >1.2 and ≦1.35 is indicated by two stars (**))	0.1 to 0.3
CCN1CCN(c2ccc3cc(-c4cn5cccc(Cl)c5n4)c(=O)oc3n2)CC1 [Cpd 133, 3-(8-chloroimidazo[1,2-a]pyridin-2-yl)-7-(4-ethylpiperazin-1-yl)-2H-pyrano[2,3-b]pyridin-2-one]	218 to 221	*** (an EC1.5× between >0.3 μM and ≦1 μM is indicated by three stars (***))	*** (a fold increase between >1.35 and ≦1.5 is indicated by three stars (***))	≤ 0.1
CCN1CCN(c2ccc3cc(-c4cn5cc(C)cc(F)c5n4)c(=O)oc3n2)CC1 [Cpd 134, 7-(4-ethylpiperazin-1-yl)-3-(8-fluoro-6-methylimidazo[1,2-a]pyridin-2-yl)-2H-pyrano[2,3-b]pyridin-2-one]	238 to 242	* (An EC1.5× for Smn protein expression between >3 μM and ≦10 μM is indicated by one star (*))	*** (a fold increase between >1.35 and ≦1.5 is indicated by three stars (***))	0.1 to 0.3
CCN1CCN(c2ccc3cc(-c4cn5cc(C)cc(F)c5n4)c(=O)oc3n2)C[C@@H]1C [Cpd 137, 7-[(3S)-4-ethyl-3-methylpiperazin-1-yl]-3-(8-fluoro-6-methylimidazo[1,2-a]pyridin-2-yl)-2H-pyrano[2,3-b]pyridin-2-one]	239 to 243	*** (an EC1.5× between >0.3 μM and ≦1 μM is indicated by three stars (***))	**** (a fold increase between >1.5 and ≦1.65 is indicated by four stars (****))	≤ 0.1
